Measured values reported in patent US20210261561A1, “BICYCLIC HETEROCYCLE DERIVATIVES HAVING SELECTIVE BACE1 INHIBITORY ACTIVITY” (SHIONOGI & CO., LTD., priority 2018, published 2021).

Experiments:
CYP3A4 = target: T1, CYP3A4 (Homo sapiens, UniProt P08684); assay: CYP3A4(MDZ) MBI test (Test Example 4-2); assay type: in vitro ADME; conditions: pooled human liver microsomes, 10 μmol/L MDZ, pre-reaction 0 or 30 minutes; shifted IC value
T1 construct: from tissue; host or cells: pooled human liver microsomes
T1 sequence (P08684 whole entry): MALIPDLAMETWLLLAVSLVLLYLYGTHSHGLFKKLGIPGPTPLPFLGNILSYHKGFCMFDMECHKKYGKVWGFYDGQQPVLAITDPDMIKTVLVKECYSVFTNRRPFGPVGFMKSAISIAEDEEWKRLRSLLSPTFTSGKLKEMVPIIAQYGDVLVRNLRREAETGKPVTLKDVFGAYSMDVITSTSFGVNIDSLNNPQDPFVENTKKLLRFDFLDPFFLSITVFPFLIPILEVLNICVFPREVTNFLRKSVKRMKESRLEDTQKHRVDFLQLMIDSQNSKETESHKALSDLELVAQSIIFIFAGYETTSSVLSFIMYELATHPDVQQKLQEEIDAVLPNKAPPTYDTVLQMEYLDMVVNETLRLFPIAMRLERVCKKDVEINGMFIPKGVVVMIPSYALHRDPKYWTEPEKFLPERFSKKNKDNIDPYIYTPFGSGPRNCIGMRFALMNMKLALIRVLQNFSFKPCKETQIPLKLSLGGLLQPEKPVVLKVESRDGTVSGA
Protocol: CYP3A4(MDZ) MBI test is a test of investigating mechanism based inhibition (MBI) potential on CYP3A4 inhibition of a compound. CYP3A4 inhibition is evaluated using 1-hydroxylation reaction of midazolam (MDZ) by pooled human liver microsomes as a marker reaction.
The reaction conditions were as follows: substrate, 10 μmol/L MDZ; pre-reaction time, 0 or 30 minutes; substrate reaction time, 2 minutes; reaction temperature, 37° C.; protein content of pooled human liver microsomes, 0.5 mg/mL at pre-reaction time, […] (at 10-fold dilution) at reaction time; concentrations of the compound of the present invention, 1, 5, 10, 20 μmol/L (4 points).
Pooled human liver microsomes in a K-Pi buffer (pH 7.4) and a compound of the present invention solution as a pre-reaction solution were added to a 96-well plate at the composition of the pre-reaction. A part of pre-reaction solution was transferred to another 96-well plate, and diluted 10-fold by a substrate in a K-Pi buffer. NADPH as a co-factor was added to initiate the marker reaction (without preincubation). After a predetermined time of the marker reaction, methanol/acetonitrile=1/1 (v/v) solution was added in order to terminate the marker reaction. On the other hand, NADPH was also added to a remaining pre-reaction solution in order to initiate a pre-reaction (with preincubation). After a predetermined time of a pre-reaction, a part was transferred to another 96-well plate, and diluted 10-fold by a substrate in a K-Pi buffer in order to initiate the marker reaction. After a predetermined time of the marker reaction, methanol/acetonitrile=1/1 (v/v) solution is added in order to terminate the marker reaction. After centrifuged at 3000 rpm for 15 minutes, 1-hydroxymidazolam in the supernatant is quantified by LC/MS/MS.
The sample adding DMSO to a reaction system instead of compound of the present invention solution was adopted as a control (100%) because DMSO is used as a solvent to dissolve a compound of the present invention. Remaining activity (%) was calculated at each concentration of the compound of the present invention added as the solution, and IC50 value was calculated by reverse-presumption using a logistic model with a concentration and an inhibition rate. Shifted IC value was calculated as “IC value without preincubation (0 minutes)/IC value with preincubation (30 minutes)”. When a shifted IC value was 1.5 or more, this was defined as positive. When a shifted IC value was less than 1.1, this was defined as negative.

BACE2 = target: T2, BACE2 (Homo sapiens, UniProt Q9Y5Z0); assay: BACE2 biochemical FRET based assay (Test Example 2-1 (2)); conditions: 0.4 μg/mL BACE2, 450 minutes, Citrate buffer pH 5.0
T2 sequence (Q9Y5Z0 63-518): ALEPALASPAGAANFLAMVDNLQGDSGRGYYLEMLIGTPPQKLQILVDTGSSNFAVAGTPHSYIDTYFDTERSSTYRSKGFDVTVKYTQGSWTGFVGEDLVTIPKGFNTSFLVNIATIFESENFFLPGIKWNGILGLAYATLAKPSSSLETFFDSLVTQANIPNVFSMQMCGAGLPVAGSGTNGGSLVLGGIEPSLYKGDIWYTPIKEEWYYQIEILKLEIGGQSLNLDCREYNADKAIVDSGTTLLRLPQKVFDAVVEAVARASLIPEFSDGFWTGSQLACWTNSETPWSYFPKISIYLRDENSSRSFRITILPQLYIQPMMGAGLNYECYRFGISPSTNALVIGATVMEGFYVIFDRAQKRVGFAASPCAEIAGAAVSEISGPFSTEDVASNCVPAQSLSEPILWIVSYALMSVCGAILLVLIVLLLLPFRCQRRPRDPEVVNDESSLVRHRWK
Excerpt: This assay is a Fluorescence Resonance Energy Transfer Assay (FRET) based assay. The substrate for this assay contains the ‘Swedish’ Lys-Met/Asn-Leu mutation of the amyloid precursor protein (APP) beta-secretase cleavage site. This substrate also contains two fluorophores: (7-methoxycoumarin-4-yl) acetic acid (Mca) is a fluorescent donor with excitation wavelength at 320 nm and emission at 405 nm and 2,4-dinitrophenol (Dnp) is a proprietary quencher acceptor. […] Upon cleavage by the beta-secretase, the fluorophore Mca is separated from the quenching group Dnp, restoring the full fluorescence yield of the donor. The increase in fluorescence is linearly related to the rate of proteolysis. Briefly in a 384-well format recombinant BACE2 protein in a final concentration of 0.4 μg/mL was incubated for 450 minutes at room temperature with 10 μM substrate in incubation buffer (final concentrations: 33.3 mM Citrate buffer pH 5.0, 0.033% PEG, 2% DMSO) in the absence or presence of compound. Next the amount of proteolysis was directly measured by fluorescence measurement at T=0 and T=450 (excitation at 320 nm and emission at 405 nm). Results were expressed in RFU (Relative Fluorescence Units), as difference between T450 and TO.
A best-fit curve was fitted by a minimum sum of squares method to the plot of % Controlmin versus compound concentration. From this an IC50 value (inhibitory concentration causing 50% inhibition of activity) can be obtained.

BACE1 = BACE1 (Homo sapiens, UniProt P56817); assay: BACE1 biochemical FRET based assay (Test Example 2-1); conditions: for selectivity: BACE2 IC50 over BACE1 IC50 (FRET); for IC50: FRET, 0.04 μg/mL BACE1, 450 minutes, Citrate buffer pH 5.0
BACE1, sequence (P56817 46-501): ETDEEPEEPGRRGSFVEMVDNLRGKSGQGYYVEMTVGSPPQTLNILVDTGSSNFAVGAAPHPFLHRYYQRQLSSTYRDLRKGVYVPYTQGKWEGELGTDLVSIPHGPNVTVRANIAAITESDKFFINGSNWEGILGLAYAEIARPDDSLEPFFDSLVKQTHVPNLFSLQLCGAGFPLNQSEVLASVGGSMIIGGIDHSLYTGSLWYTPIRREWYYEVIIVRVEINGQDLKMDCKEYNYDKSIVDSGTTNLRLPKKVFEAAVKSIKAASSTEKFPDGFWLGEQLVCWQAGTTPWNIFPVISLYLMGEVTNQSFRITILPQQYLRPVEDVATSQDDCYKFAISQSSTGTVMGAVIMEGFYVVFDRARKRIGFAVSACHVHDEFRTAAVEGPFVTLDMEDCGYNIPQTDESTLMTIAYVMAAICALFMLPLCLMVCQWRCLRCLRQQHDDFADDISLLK
Excerpt: This assay is a Fluorescence Resonance Energy Transfer Assay (FRET) based assay. The substrate for this assay is an APP derived 13 amino acids peptide that contains the ‘Swedish’ Lys-Met/Asn-Leu mutation of the amyloid precursor protein (APP) beta-site secretase cleavage site. This substrate also contains two fluorophores: (7-methoxycoumarin-4-yl) acetic acid (Mca) is a fluorescent donor with excitation wavelength at 320 nm and emission at 405 nm and 2,4-dinitrophenol (Dnp) is a proprietary quencher acceptor. […] Upon cleavage by BACE1, the fluorophore Mca is separated from the quenching group Dnp, restoring the full fluorescence yield of the donor. The increase in fluorescence is linearly related to the rate of proteolysis.
Briefly in a 384-well format recombinant BACE1 protein in a final concentration of 0.04 μg/mL is incubated for 450 minutes at room temperature with […] substrate in incubation buffer (final concentrations: 33.3 mM Citrate buffer pH 5.0, 0.033% PEG, 3% DMSO) in the absence or presence of compound. Next the amount of proteolysis is directly measured by fluorescence measurement at T=0′-120′ and T=450′ (excitation at 320 nm and emission at 405 nm). Results are expressed in RFU (Relative Fluorescence Units), as difference between T450 and Tx (Tx is chosen depending on the reaction speed between 0 and 120 minutes.).
A best-fit curve is fitted by a minimum sum of squares method to the plot of % Controlmin versus compound concentration. From this an IC50 value (inhibitory concentration causing 50% inhibition of activity) can be obtained.

[1] = system: Abeta 1-37, Abeta 1-38, Abeta 1-40 and Abeta 1-42 in cerebrospinal fluid (CSF); assay: Pharmacology in the beagle dog, beta-amyloid profile in CSF (Test Example 18-1); assay type: in vivo
Protocol: Test compounds were tested to evaluate the effect on the beta-amyloid profile in cerebrospinal fluid (CSF) of dogs after a single dose, in combination with pharmacokinetic (PK) follow up and limited safety evaluation.
In the case of compounds shown below, two beagle dogs (1 male, 1 female) were dosed with vehicle (1 mL/kg of an aqueous solution of 20% cyclodextrin) and 4 beagle dogs (2 males and 2 females) were dosed with test compound at the doses indicated in the following Table in an aqueous 20% cyclodextrin solution with a concentration in mg/mL identical to the dose given in mg/kg) on an empty stomach.
CSF was taken in conscious animals directly from the lateral ventricle via a cannula which was screwed in the skull and covered with subcutaneous tissue and skin, before and at 4, 8, 25 and 49 hours after dosing. Eight hours after dosing the animals got access to their regular meal for 30 minutes. Blood was taken for PK follow up (0.5, 1, 2, 4, 8, 25 and 49 hours) and serum samples for biochemistry were taken before and at 8 and 25 h after dosing. The CSF samples were used for measurement of Abeta 1-37, Abeta 1-38, Abeta 1-40 and Abeta 1-42.

[2] = single dose 5 mg/kg, relevant decrease = >20% decrease
[3] = single dose 10 mg/kg, relevant decrease = >20% decrease

MBI MDZ (CYP3A4)	IC50 (BACE2)	selectivity (BACE1)	IC50 (BACE1)	SMILES	% Decrease in Abeta 1-42 at 8 h post dosing compared to own baseline ([1]; single dose 0.63 mg/kg)	% Decrease in Abeta 1-42 at 8 h post dosing compared to own baseline ([1]; single dose 2.5 mg/kg)	% Decrease in Abeta 1-42 at 8 h post dosing compared to own baseline ([1]; single dose 5 mg/kg)	% Decrease in Abeta 1-42 at 25 h post dosing compared to own baseline [1, 2]	% Decrease in Abeta 1-42 at 8 h post dosing compared to own baseline ([1]; single dose 10 mg/kg)	% Decrease in Abeta 1-42 at 25 h post dosing compared to own baseline [1, 3]	% Decrease in Abeta 1-42 at 25 h post dosing compared to own baseline ([1]; single dose 2.5 mg/kg, relevant decrease = >20% decrease)	% Decrease in Abeta 1-42 at 49 h post dosing compared to own baseline ([1]; single dose 10 mg/kg, 49 h, relevant decrease = >20% decrease)
Negative	490 nM	136	3.6 nM	C[C@H]1OC[C@H]2[C@@H]1OC(N)=N[C@]2(CF)c1cc(NC(=O)c2cc3c(cn2)OC(F)(F)CO3)ccc1F [Compound I-049]								
Negative				CC1(C)C(N)=N[C@](C)(c2cc(NC(=O)c3cc4c(cn3)OC(F)(F)CO4)ccc2F)CS1(=O)=O [Compound I-024]	−40%	−66%						
Negative	53.7 nM	18.7	2.9 nM	CN1C(N)=N[C@](C)(c2cc(NC(=O)c3cc4c(cn3)OC(F)(F)O4)ccc2F)CS1(=O)=O [Compound I-012]								
Negative	661 nM	301	2.2 nM	NC1=N[C@](CF)(c2cc(NC(=O)c3cc4c(cn3)OC(F)(F)CO4)ccc2F)[C@H]2COCC[C@H]2O1 [Compound I-035]		−52%	−63%	−27%	−82%	−28%		
Negative				CC1(C)C(N)=N[C@](C)(c2cc(NC(=O)c3cc4c(cn3)OC(F)(F)O4)ccc2F)CS1(=O)=O [Compound I-027]								
	2000 nM	200	10 nM	C[C@@H]1C[C@H]2OC(N)=N[C@](CF)(c3cc(NC(=O)c4cc5c(cn4)OC(F)(F)CO5)ccc3F)[C@H]2CO1 [Compound I-053]	−31%	−50%					−27%	
Negative	2190 nM	263	8.32 nM	NC1=N[C@](CF)(c2cc(NC(=O)c3cc4c(cn3)OC(F)(F)CO4)ccc2F)[C@H]2CCOC[C@H]2O1 [Compound I-046]								
Negative	18.6 nM	15.9	1.2 nM	CN1C(N)=N[C@](C)(c2cc(NC(=O)c3cc4c(cn3)OC(F)(F)CO4)ccc2F)CS1(=O)=O [Compound I-011]			−54%	−37%	−74%	−77%		−30%
Negative				[2H]C1([2H])Oc2cnc(C(=O)Nc3ccc(F)c([C@]4(C)CS(=O)(=O)C(C)(C)C(N)=N4)c3)cc2OC1([2H])[2H] [Compound I-026]								
Negative	2190 nM	166	13.2 nM	NC1=N[C@](CF)(c2cc(NC(=O)c3cc4c(cn3)OC(F)(F)O4)ccc2F)[C@H]2COCC[C@H]2O1 [Compound I-036]								
